Test results from patent publication US11623909B2, “Water-based extraction and purification processes for cannabinoid acids” (MEDPHARM IOWA LLC, priority 2019, dated 2023).

Legend:
[1] = HPLC of acidified solution after precipitation of cannabinoid acid (amount remaining in solution); type: physicochemical
From the text: Precipitation of crude extract (CBDA) by acidification was done with either hydrochloric acid or nitric acid. No difference was observed between the two since the precipitation was pH driven. 1.0-1.5 equivalents of acid (relative to total base) was sufficient for precipitation of the crude extract. The crude extract had CBDA purities on the order of 40-50% and were independent of the amount of acid added. E.g. adding fewer than 1.0 equivalents in an attempt to selectively precipitate either impurities or CBDA yielded crude material with similar purities. Addition of more acid yielded more precipitate of similar purity (up to 1.0-1.5 equivalents). Addition of more than 1.5 equivalents yielded no additional precipitate. Though when the mixture was allowed to sit overnight more white precipitate formed. […]
‘Spent’ CO2-stripped biomass was aliquoted out to 50 g portions (˜6 g THCA). […] All filtrate was analyzed by HPLC prior to acidification. […] Both the filtrate and dried material were analyzed by HPLC. […]
Experiment A utilized a NaOH:THCA (mol:mol) ratio of 1:1 (see Table 4). […] The amount of THCA detected in the filtrate increased with each successive wash until a rinse with no added NaOH was conducted for 1 minute. […] The precipitate was filtered off, collected, and analyzed by HPLC. The filtrate was acidified to pH 2.16 to yield a tan/brown precipitate, filter, collected and analyzed by HPLC. […]

[2] = Solubility limit of THCA anions in aqueous NaOH wash (experiment A, 1:1 NaOH:THCA); type: physicochemical; conditions: NaOH:THCA 1:1 mol:mol, room temperature, conditions of experiment A
Procedure: ‘Spent’ CO2-stripped biomass was aliquoted out to 50 g portions (˜6 g THCA). Water (400 ml) and a 40 wt % solution of NaOH (see Tables 4-6) was added to the plant material. The mixture was allowed to stir for 10 minutes at 500-1000 RPM (speed was adjusted to minimize foaming). Solid materials were filtered off with coffee filters. The process was repeated for a total of 4 (Expt A) to 5 (Expts B&C) iterations. A final rinse 2×200 ml with no NaOH was stirred for 1 minute then filtered off. All filtrate was analyzed by HPLC prior to acidification. Acidification to pH 2-3 with HCl, as described above, yielded a precipitate which was filtered off and dried. Both the filtrate and dried material were analyzed by HPLC. All extractions were done at room temperature.
Experiment A utilized a NaOH:THCA (mol:mol) ratio of 1:1 (see Table 4). […] The amount of THCA detected in the filtrate increased with each successive wash until a rinse with no added NaOH was conducted for 1 minute. […] The precipitate was filtered off, collected, and analyzed by HPLC. The filtrate was acidified to pH 2.16 to yield a tan/brown precipitate, filter, collected and analyzed by HPLC. […] The final filtrate (left over after harvesting THCA) contained THCA quantities that were below the limit of quantification (less than 10 mg/400 g wash/rinse; that is <0.001 wt % THCA).

Row | SMILES | CBDA remaining in acidified solution (loss) ([1]; acidified solution pH~4, after precipitation of crude extract) | solubility limit for THCA anions [2] | THCA in final filtrate after acidification (below limit of quantification) ([1]; filtrate after acidification to pH 2-3 with HCl and harvesting THCA, experiment A)
1 | C=C(C)[C@@H]1CCC(C)=C[C@H]1c1c(O)cc(CCCCC)c(C(=O)O)c1O [CBDA] | ~7 μg CBDA/ml |  | 
2 | CCCCCc1cc2c(c(O)c1C(=O)O)[C@@H]1C=C(C)CC[C@H]1C(C)(C)O2 [THCA] |  | around 0.3 wt % | < 0.001 wt % THCA
